The text below walks through data of patent US20200392150A1, “Diaryl-B-Lactam Compound and Preparation Method and Pharmaceutical Use Thereof” (Fudan University, priority 2016, published 2020).

Series [1] relates to MDA-MB-231. As to the kind of experiment: In vitro cell growth inhibition assay (MTT). The series is classed as cell-based, human. The note with it: MDA-MB-231 human breast cancer cell line, 48 h, MTT; read-out: IC50 MDA-MB-231. In short, it runs like this:
(§1)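 Following overnight adherence of 5000 cells per well, compounds or 0.2% DMSO were applied for 48 h. Medium was then swapped for 0.5 mg/mL MTT medium (4 h, 37° C), crystals dissolved in DMSO, and plates read at 540 nm.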

Series [2] relates to Hela. In words: In vitro cell growth inhibition assay (MTT). The series is classed as cell-based, human. The note with it: Hela human cervical cancer cell line, 48 h, MTT; read-out: IC50 Hela. In short, it runs like this: as §1
The subject of series [3] is A2780. In words: In vitro cell growth inhibition assay (MTT). The settings on record: A2780 human ovarian cancer cell line, 48 h, MTT; read-out: IC50 A2780. The series is classed as cell-based, human. In a few lines: as §1
The test system of series [4] is SKOV3. In words: In vitro cell growth inhibition assay (MTT). In kind it is cell-based, human. The note with it: SK-OV-3; SKOV-3 human ovarian cancer cell line, 48 h, MTT; read-out: IC50 SKOV3. In short, it runs like this:
as §1

A value given as a limit tells only on which side of the number the result lay.

In the case of `C=C1C(=O)N(c2cc(OC)c(OC)c(OC)c2)[C@H]1c1ccc(OC)c(OC(=O)N2CCOCC2)c1` [Compound 25, (S)-2-methoxy-5-(3-methylene-4-oxo-1-(3,4,5-trimethoxyphenyl)azetidin-2-yl)phenyl morpholine-4-carboxylate], the melting point lay within 82 to 83 °C. In series [1], the IC50 is over 10000 nM. In addition, the IC50 in series [2] is over 10000 nM. For the same compound, the IC50 in series [3] was over 10000 nM. The IC50 in series [4] was over 10000 nM.
With `C=C1C(=O)N(c2cc(OC)c(OC)c(OC)c2)[C@H]1c1ccc(OC)c(OS(N)(=O)=O)c1` [Compound 26, (S)-2-methoxy-5-(3-methylene-4-oxo-1-(3,4,5-trimethoxyphenyl)azetidin-2-yl)phenyl sulfamate], the melting point lay within 199 to 200 °C. The IC50 in series [1] came to 240 nM. For the same compound, the IC50 in series [2] was found to be 224 nM. Besides, the IC50 in series [3] is 133 nM. For the same compound, the IC50 in series [4] came out at 177 nM.
With `C=C1C(=O)N(c2cc(OC)c(OC)c(OC)c2)[C@H]1c1ccc(OC)c(OS(=O)(=O)CCN2C(=O)c3ccccc3C2=O)c1` [Compound 28, (S)-2-methoxy-5-(3-methylene-4-oxo-1-(3,4,5-trimethoxyphenyl)azetidin-2-yl)phenyl 2-(1,3-dioxoisoindolin-2-yl)ethanesulfonate], the melting point is 69 to 70 °C. Moreover, in series [1], the IC50 was over 20000 nM. Moreover, the IC50 in series [2] was over 20000 nM. Further, the IC50 in series [3] was found to be 16800 nM. In addition, the IC50 in series [4] is 13300 nM.
Take `C=C1C(=O)N(c2cc(OC)c(OC)c(OC)c2)[C@H]1c1ccc(OC)c(OS(=O)(=O)N2CCOCC2)c1` [Compound 29, (S)-2-methoxy-5-(3-methylene-4-oxo-1-(3,4,5-trimethoxyphenyl)azetidin-2-yl)phenyl morpholine-4-sulfonate]: the melting point was in the range of 134 to 135 °C. Besides, the IC50 in series [1] was over 20000 nM. For the same compound, the IC50 in series [2] was 19300 nM. Further, the IC50 in series [3] came out at 12900 nM. For the same compound, the IC50 in series [4] worked out at 15600 nM.
The corresponding values for `C=C1C(=O)N(c2cc(OC)c(OC)c(OC)c2)[C@H]1c1ccc(OC)c(OS(=O)(=O)CCCC)c1` [Compound 31, (S)-2-methoxy-5-(3-methylene-4-oxo-1-(3,4,5-trimethoxyphenyl)azetidin-2-yl)phenyl butane-1-sulfonate] are 99 to 100 °C, 7290 nM, 14000 nM, 5320 nM and 10200 nM.
The corresponding values for `C=C1C(=O)N(c2cc(OC)c(OC)c(OC)c2)[C@H]1c1ccc(OC)c(OC(=O)CNC(=O)OC(C)(C)C)c1` [Compound 34, (S)-2-methoxy-5-(3-methylene-4-oxo-1-(3,4,5-trimethoxyphenyl)azetidin-2-yl)phenyl 2-((tert-butoxycarbonyl)amino)acetate] are 88 to 89 °C, 335 nM, 62 nM, 240 nM and 264 nM.
Compound `C=C1C(=O)N(c2cc(OC)c(OC)c(OC)c2)[C@H]1c1ccc(OC)c(Cl)c1` [Compound 39, (S)-4-(3-chloro-4-methoxyphenyl)-3-methylene-1-(3,4,5-trimethoxyphenyl)azetidin-2-one] came in with a melting point of 119 to 120 °C. For the same compound, the IC50 in series [1] came to 512 nM. Moreover, the concentration for half-maximal inhibition (IC50) in series [2] came out at 371 nM. Moreover, the IC50 in series [3] was found to be 316 nM. The IC50 in series [4] stood at 341 nM.
Consider `C=C1C(=O)N(c2cc(OC)c(OC)c(OC)c2)[C@H]1c1ccc(OC)c(C(=O)OC)c1` [Compound 40, (5)-methyl 2-methoxy-5-(3-methylene-4-oxo-1-(3,4,5-trimethoxyphenyl)azetidin-2-yl)benzoate], for which the melting point was in the range of 112 to 113 °C. Besides, the IC50 in series [1] is 479 nM. Moreover, the IC50 in series [2] stood at 942 nM. In series [3], the IC50 amounted to 281 nM. In addition, in series [4], the IC50 stood at 539 nM.
Consider `C=CC(=O)Nc1cc([C@H]2C(=C)C(=O)N2c2cc(OC)c(OC)c(OC)c2)ccc1OC` [Compound 42, (S)—N-(2-methoxy-5-(3-methylene-4-oxo-1-(3,4,5-trimethoxyphenyl)azetidin-2-yl)phenyl)acrylamide], for which the melting point lay within 143 to 144 °C. Besides, in series [1], the IC50 was 34 nM. The half-maximal inhibitory concentration (IC50) in series [2] amounted to 125 nM. In series [3], the IC50 was found to be 65 nM. For the same compound, the IC50 in series [4] stood at 63 nM.
For `C=C1C(=O)N(c2cc(OC)c(OC)c(OC)c2)[C@H]1c1ccc(OC)c(NC(=O)c2ccc([N+](=O)[O-])cc2)c1` [Compound 43, (S)—N-(2-methoxy-5-(3-methylene-4-oxo-1-(3,4,5-trimethoxyphenyl)azetidin-2-yl)phenyl)-4-nitrobenzamide], in that order: 234 to 235 °C, 2000 nM, 1580 nM, 931 nM and 1420 nM.
As for `C=C1C(=O)N(c2cc(OC)c(OC)c(OC)c2)[C@H]1c1ccc(OC)c(NS(N)(=O)=O)c1` [Compound 44, (S)—N-(2-methoxy-5-(3-methylene-4-oxo-1-(3,4,5-trimethoxyphenyl)azetidin-2-yl)phenyl)sulfamoylamide], the melting point lay in the range of 101 to 102 °C. For the same compound, in series [1], the IC50 is 841 nM. In addition, in series [2], the IC50 came out at 456 nM. The IC50 in series [3] is 354 nM. Further, the IC50 in series [4] amounted to 833 nM.
Compound `C=C1C(=O)N(c2cc(OC)c(OC)c(OC)c2)[C@H]1c1ccc(OC)c(NC(=O)C2CC2)c1` [Compound 45, (S)—N-(2-methoxy-5-(3-methylene-4-oxo-1-(3,4,5-trimethoxyphenyl)azetidin-2-yl)phenyl)cyclopropanecarboxamide] came in with a melting point of 181 to 182 °C. Moreover, the IC50 in series [1] was 197 nM. Besides, the concentration for half-maximal inhibition (IC50) in series [2] came out at 321 nM. The IC50 in series [3] stood at 148 nM. In addition, the IC50 in series [4] was determined as 224 nM.
For `C=C1C(=O)N(c2cc(OC)c(OC)c(OC)c2)[C@H]1c1ccc(OC)c(OC(C)=O)c1` [Compound 46, (S)-2-methoxy-5-(3-methylene-4-oxo-1-(3,4,5-trimethoxyphenyl)azetidin-2-yl)phenyl acetate], in that order: 122 to 123 °C, 133 nM, 116 nM, 81 nM and 104 nM.
The compound `C=C1C(=O)N(c2cc(OC)c(OC)c(OC)c2)[C@H]1c1ccc(OC)c(OCc2ccccc2)c1` [Compound 47, (S)-4-(3-(benzyloxy)-4-methoxyphenyl)-3-methylene-1-(3,4,5-trimethoxyphenyl)azetidin-2-one] registered a melting point of 133 to 134 °C. In addition, the IC50 in series [1] was over 20000 nM. In addition, in series [2], the IC50 was over 20000 nM. For the same compound, in series [3], the IC50 is over 20000 nM. In series [4], the IC50 is over 20000 nM.
`C=C1C(=O)N(c2ccc(OC)c(OC)c2)[C@H]1c1ccc(OC)c(O)c1` [Compound 48, (S)-1-(3,4-dimethoxyphenyl)-4-(3-hydroxy-4-methoxyphenyl)-3-methyleneazetidin-2-one] registered a melting point of 74 to 75 °C. Moreover, the IC50 in series [1] stood at 6100 nM. For the same compound, in series [2], the IC50 was over 20000 nM. Also, in series [3], the IC50 was determined as 4570 nM. For the same compound, in series [4], the IC50 stood at 14800 nM.
The corresponding values for `C=C1C(=O)N(c2cccc(OC)c2)[C@H]1c1ccc(OC)c(O)c1` [Compound 51, (S)-1-(3-methoxyphenyl)-4-(3-hydroxy-4-methoxyphenyl)-3-methyleneazetidin-2-one] are 104 to 105 °C, 1370 nM, 2170 nM, 677 nM and 1390 nM.
For the compound `C=C1C(=O)N(c2ccc(OC)cc2)[C@H]1c1ccc(OC)c(O)c1` [Compound 52, (S)-1-(4-methoxyphenyl)-4-(3-hydroxy-4-methoxyphenyl)-3-methyleneazetidin-2-one], the melting point was 180 to 181 °C. In addition, the IC50 in series [1] is over 20000 nM. Besides, the IC50 in series [2] was over 20000 nM. Moreover, the IC50 in series [3] was over 20000 nM. Besides, the IC50 in series [4] was over 20000 nM.
`COc1ccc([C@H]2/C(=C/C[Si](C)(C)C)C(=O)N2c2cc(OC)c(OC)c(OC)c2)cc1O` [Compound 53, (S,Z)-4-(3-hydroxy-4-methoxyphenyl)-1-(3,4,5-trimethoxyphenyl)-3-(2-(trimethylsilyl)ethylidene)azetidin-2-one] showed a melting point of 67 to 69 °C. Also, the IC50 in series [1] is over 10000 nM. For the same compound, the IC50 in series [2] is over 10000 nM. Further, the IC50 in series [3] is over 10000 nM. Also, the IC50 in series [4] was over 10000 nM.

In general, IC50 refers to the concentration that inhibits the measured activity by half. For orientation: melting point means the temperature of the solid-liquid transition.
